In patent EP2753335B1, “AN ANTHRACYCLINE FOR THE TREATMENT OF SEPSIS” (Instituto de Medicina Molecular, priority 2011, dated 2013):
Where a name gives a salt, the structure may show the parent alone. Read-outs that look alike come from different tables or passages of the source.

Assays:
TNF [1] = experiment: In vitro chemical screen (Spectrum collection): TNF secretion by E. coli challenged THP-1 cells, DAS-ELISA; assay type: cell-based, human
Experimental: (§1) We identified 45 leading candidates (Figure 1A and Table I) that inhibited both cytokines.
(§2) THP-1 human monocytes (American Tissue Culture Collection-ATCC TIB-202) were plated in 96 well plates at 10^6 cell/ml and incubated with each one of ∼2320 compounds included in the Spectrum collection (Microsource Discovery Systems, Gaylordsville, CT) at 10µM for 1 hour. Cells were then challenged with 4% PFA-fixed DH5α E.coli at a Multiplicity of Infection (MOI) of 20 bacterial cells per THP-1 cell for an additional 24 hours. The cell supernatants were collected and IL-1β and TNF cytokines quantified by DAS-ELISA, using Human IL-1β/IL-1F2 DuoSet® and Human TNF DuoSet® (R&D Systems ®), respectively, according to company's protocol.
(§3) We generated a working subset of The RNAi Consortium (TRC) shRNA lentiviral vector library ^33,33 that allows for the silencing of most of the genes that are either human kinases or phosphatases. This subset was composed of 1440 individually arrayed lentiviral shRNA vectors targeting ∼700 genes, after selecting the most efficient shRNAs (two on average) based on available silencing efficiency data from the Broad Institute of MIT and Harvard. THP-1 cells were plated in 96 well plates at 10^6 cell/ml and infected with shRNA-expressing lentivirus. 48 hrs later infected cells were selected with puromycin. After the 3 days of selection, plates were duplicated. One of the plates was used to measure the cell number using Alamar Blue® cell viability assay (Invitrogeia®), according to manufacturer's instructions. In the other plate, cells were stimulated with 4% PFA-fixed DH5α E.coli at a Multiplicity of Infection (MOI) of 20 bacterial cells per THP-1 cell. Twenty-four hours after stimulation, cell supernatants were collected and IL-1β and TNF cytokines quantified by DAS-ELISA. All data values from IL-1β and TNF secretion assays were normalized by dividing the amount of IL-1β and TNF in the conditioned media 24, 12, 8, 6, 4 or 2 hrs after E. coli stimulation by the number of cells in each well and then by the average concentration per cell of the plate. Results were logarithmic natural transformed. Scores were sorted in ascending order and graphed. We calculated 1.5 SDEVs above and below the mean to identify the genes that changed IL-1β and TNF secretion when silenced. The same approach was used to identify the compounds that changed IL-1β and TNF secretion. The selected genes were submitted to two or more rounds of phenotypic validation.

IL-1β [2] = experiment: In vitro chemical screen (Spectrum collection): IL-1β secretion by E. coli challenged THP-1 cells, DAS-ELISA; assay type: cell-based, human
Experimental: as §1, §2, §3

[3] = system: C57BL/6 mice subjected to CLP; experiment: Cecal ligation and puncture (CLP) mouse model of severe sepsis, survival; assay type: in vivo; details: for protection against severe CLP (survival, in words): doxorubicin 0.5ug/g, daunorubicin 0.6µg/g body weight at the time of procedure and 24 hours later, Figure 6
Experimental: We choose the cecal ligation and puncture (CLP) mouse model to investigate the in vivo effects of epirubicin. In CLP, sepsis results from a polymicrobial infectious abdominal origin, leading to bacteraemia and a systemic inflammatory response^15.
Animal care and experimental procedures were conducted in accordance with Portuguese and US guidelines and regulations after approval by the respective local committees (Instituto de Medicina Molecular and Instituto Gulbenkian de Ciência). All mice used were 8-12 weeks old. Mice were bred and maintained under specific pathogen-free (SPF) conditions. C57BL/6 and C57BL/6 ATM^-/- were obtained from the Instituto Gulbenkian de Ciência (a kind gift from Dr. Vasco Barreto). C57BL/6 Nrf2^-/- mice were provided originally from the RIKEN BioResource Center (Koyadai, Tsukuba, Ibaraki, Japan)^31 and subsequently at the Institute Gulbenkian de Ciência. Cecal Ligation and Puncture was performed as described previously^15.

IL-1β [4] = experiment: Concentration-response validation: IL-1β production by E. coli challenged THP-1 cells; assay type: cell-based, human
Experimental: (§4) • Figure 1 represents a primary screen to identify compounds in the Spectrum Collection library that inhibit the secretion of TNF and IL-1β. (A) it is a two-dimension plot of TNF and IL-1β production Z scores calculated upon THP-1 cells challenge with PFA-fixed E. coli for 24 hours in the presence of 10µM of each compound. The square defines the area in which compounds are considered primary hits, i.e., inhibiting both TNF and IL-1β, (B) represents the IL-1β and TNF production by E. coli challenged THP-1 cells (4 hours) after a pre-incubation (1 hour) with increasing concentrations of epirubicin. Results shown represent mean ± standard deviation from triplicate samples in one of 3 independent assays. (C) is a transcriptional profiling of THP-1 cell line response to epirubicin and unsupervised clustering of microarray expression profiles. […] Plots depict relative expression of IL-1β, TNF, CCL2, CXCL10, STAT1, STAT2, START4 and STAT5a as assessed by qRT-PCR in E. coli challenged THP-1 cells (4 hours) after a pre-incubation (1 hour) with 5µM epirubicin. […] Results shown represent mean values ± SEM from triplicate readings per animal. […] (D) relates to the expression of IL-1β, TNF, CCL2 and CXCL10 as assessed by qRT-PCR in THP-1 cells treated as in (C). […]

THP-1 cells = experiment: Autophagy induction in THP-1 cells, flow cytometry with Cyto-ID Green; assay type: cell-based, human; details: KU-55933 2µM plus epirubicin 1µM (1 hour), PFA-fixed E. coli 4 hours
TNF [5] = experiment: Concentration-response validation: TNF production by E. coli challenged THP-1 cells; assay type: cell-based; details: Homo sapiens; E. coli challenged THP-1 cells (4 hours) after pre-incubation (1 hour) with increasing concentrations; read-out: half-inhibitory concentration (IC50) for TNF
Experimental: as §4

muHV-4 virus = experiment: Clearance of a secondary intranasal infection one week after administration; assay type: in vivo; details: compared with control mice, unpublished data
[6] = THP-1 cells, 10µM compound for 1 hour, then PFA-fixed E. coli (MOI 20) for 24 hours

| Compound | Z score TNFa (TNF [1]; [6]) | Z score IL1b (IL-1β [2]; [6]) | also measured |
| --- | --- | --- | --- |
| COc1cccc2c1C(=O)c1c(O)c3c(c(O)c1C2=O)C[C@@](O)(C(=O)CO)C[C@@H]3O[C@H]1C[C@H](N)[C@H](O)[C@H](C)O1 [Doxorubicin] | -4,071115136 | -2,412138965 | protection against severe CLP (survival, in words) [3]: comparable protection |
| O=c1cc(-c2cccc3c2Sc2ccccc2S3)oc(N2CCOCC2)c1 [KU-55933] |  |  | rescue of epirubicin-mediated IL-1β down-regulation (IL-1β [4]; KU-55933 2µM together with epirubicin 1µM, THP-1 cells, E. coli 4 hours): could be rescued; effect of ATM inhibitor pre-treatment on epirubicin-induced autophagy (THP-1 cells): eliminates this effect |
| COc1cccc2c1C(=O)c1c(O)c3c(c(O)c1C2=O)C[C@@](O)(C(=O)CO)C[C@@H]3O[C@H]1C[C@H](N)[C@@H](O)[C@H](C)O1 [Epirubicin hydrochloride] | -4,474857631 | -1,212875226 | IC50 (IL-1β [4]; Homo sapiens, THP-1, read-out: half-inhibitory concentration (IC50) for IL-1β): 400 nM; IC50 (TNF [5]): 500 nM; increase of survival of mice subjected to CLP ([3]; i.p. in PBS at the time of CLP and 24hrs later, total 1.2µg/g body weight, no antibiotic, wildtype C57BL/6): ~80%; immune competence: clearance of secondary intranasal muHV-4 infection (muHV-4 virus): not immunocompromised |
| COc1cccc2c1C(=O)c1c(O)c3c(c(O)c1C2=O)C[C@@](O)(C(C)=O)C[C@@H]3O[C@H]1C[C@H](N)[C@H](O)[C@H](C)O1 [Daunorubicin] | -3,007093086 | -0,995459172 | protection against severe CLP (survival, in words) [3]: comparable protection |
| COc1cc([C@@H]2c3cc4c(cc3[C@@H](O[C@@H]3O[C@@H]5CO[C@@H](C)O[C@H]5[C@H](O)[C@H]3O)[C@H]3COC(=O)[C@H]23)OCO4)cc(OC)c1O [etoposide] |  |  | rescue of mortality induced by CLP ([3]; etoposide 2.0µg/g body weight, at the time of procedure and 24 hours later, wildtype C57BL/6): only partially rescues the mortality induced by CLP |
| COc1cc2oc3cc(OC)c(OC)c(CC=C(C)C)c3c(=O)c2c(OC)c1CC=C(C)C [Mangostin trimethyl ether] | -3,162805301 | -1,634164354 |  |
| Colistin sulfate | -3,457325884 | -0,918619053 |  |
| CC[C@@]1(O)C[C@H](O[C@H]2C[C@H](N(C)C)[C@H](O)[C@H](C)O2)c2c(cc3c(c2O)C(=O)c2c(O)cccc2C3=O)[C@H]1C(=O)OC [Aklavine hydrochloride] | -3,511681732 | -1,408917561 |  |
| CC(=O)O[C@@H]1C[C@@]2(C)[C@H](c3ccoc3)C[C@H]3O[C@]32[C@]2(C)C(=O)C(O)=C3C(C)(C)C(=O)C=C[C@]3(C)[C@@H]12 [Anthothecol] | -2,834385142 | -1,868706598 |  |
| CCC(=O)OCC(=O)[C@@]1(OC(=O)CC)[C@H](C)C[C@H]2[C@H]3[C@H]([C@@H](O)C[C@@]21C)[C@@]1(C)C=CC(=O)C=C1C[C@H]3Cl [Alclometazone dipropionate] | -1,999200408 | -0,922964076 |  |
| O=C1C=CC(=O)c2ccccc21 [1,4-naphthoquinone] | -2,77797604 | -1,349015947 |  |
| O=C1C=C2C(=CCOC2O)O1 (centres unmarked) [Patulin] |  |  | Z score TNFa (TNF [1]): -2,874616362; Z score IL1b (IL-1β [2]): -0,902703858 |
